According to publication PMC10846744, “Cathelicidin peptide analogues inhibit EV71 infection through blocking viral entry and uncoating” (PLOS Pathogens, 2024):
Where no end group is shown, it is not given here.

Assays:
EV71 virions = assay: Viral particle ultracentrifugation (uncoating with SCARB2 at pH 5.5); design: species or system enterovirus 71 (EV71); details: EV71 MOI = 10, 1.5 μg SCARB2, pH 5.5, 37°C 2 hrs, iodoxanol gradient ultracentrifugation, immunoblotting
Method: Fig 6 LL-18 stabilizes the viral particles by inhibiting uncoating. (A) EV71 virus (MOI = 10) was pre-incubated with PBS, indicated amount of LL-18 or NaCl for 1 hr and then mixed with SYBR green dyes II before they were heated to indicated temperatures. The fluorescent signals were measured and plotted against temperature. PBS was used as a negative control. (B) EV71 virus (MOI = 10) was pre-incubated with PBS, LL-18, or 12s for 2 hrs. Half of the samples were then treated with 1.5 μg SCARB2 protein and incubated at 37°C for 2 hrs at pH 5.5. Samples were then subjected to ultracentrifugation as detailed in materials and methods. The numbers above represent the fractions collected from top to bottom.
EV71 viruses were pre-incubated with either PBS, 12s, or LL-18 for 1 hr. Then half the samples were treated with 1.5 μg purified SCARB2 protein (Sino Biological, China) with pH adjusted to 5.5. The samples were incubated at 37°C for 2 hrs to simulate the virus uncoating environment. Viral particles were then loaded onto iodoxanol gradients (0% 500 μL, 21% 1 mL, 27% 1 mL, 33% 1 mL, 39% 1 mL) and ultra-centrifuged at 4°C, 45000 rpm for 1.5 hrs. 7 fractions were collected from the top, and samples were precipitated with Trichloroacetic acid (TCA) before being analyzed with immunoblotting.

[1] = system: EV71 virus-SCARB2 interaction; assay: Virus-SCARB2 co-immunoprecipitation competition; type: binding; details: SCARB2-Flag 293T lysates incubated with EV71 virus with or without compound, anti-Flag IP, anti-VP1 immunoblotting
Method: Fig 5 LL-18 interferes with virus-SCARB2 interaction. (A) Molecular docking model of LL-18 with EV71 virion. […] The amino acid residues of capsid protein interacting with both LL-18 and SCARB2 are indicated (right panel). (B) 293T cells expressing SCARB2-Flag were lysed and cell lysates were incubated with EV71 virus in the absence or presence of the indicated amount of LL-18. Cell lysates were then immunoprecipitated with anti-Flag antibody and the precipitated virus was determined with anti-VP1 antibody. (C) 293T cells expressing Annexin 2-Flag were lysed and cell lysates were incubated with EV71 virus in the absence or presence of LL-18. Cell lysates were then immunoprecipitated with anti-Flag antibody and the precipitated virus was determined with anti-VP1 antibody.
Coimmunoprecipitation was performed as previously described. Briefly, VP1, VP2, and VP3 were PCR amplified and cloned into pcDNA3.1 with an HA tag. LL-18 or LL-37 encoding oligonucleotides were inserted into an eGFP-expressing construct (pHW200-eGFP). […] After washing with wash buffer (0.05% Triton X-100) six times, samples were analyzed by Western blotting.
Supplementary file ppat.1011967.s004.tif: S4 Fig Compound 12s interferes with virus-SCARB2 interaction. […] Cell lysates were then immunoprecipitated with anti-Flag antibody and the precipitated virus was determined with anti-VP1 antibody. […]

EV71 P30 virus = assay: Resistance induction assay (30 passages); type: cell-based, enterovirus 71 (EV71); details: 20 passages at 0.9 μM then 10 at 1.5 μM LL-18; 1.5 μM LL-18 pre-incubation 1 h, RD cell viability 24 h.p.i
Method: (A) Diagram of resistance induction assay. (B) RD cells infected with parental EV71 or P30 with or without 1.5 μM LL-18 pre-incubation were tested for cell viability 24 h.p.i. ns, not significant; ***, P<0.001.
Resistance induction assay was conducted as previously reported. Briefly, virus was first successively passaged in RD cells for 20 generations in the presence of a lower concentration of LL-18 (0.9 μM). The progeny virus was then passaged for another 10 generations with 1.5 μM LL-18, and the progeny virus was designated as P30. The parental EV71 and P30 with the same titer were pre-incubated with 1.5 μM LL-18 for 1 h and then tested for cell viability 24 h.p.i.

[2] = system: mouse-adapted EV71 (mEV71); assay: mEV71 infection inhibition in RD cells; type: cell-based, enterovirus 71 (EV71); details: mEV71 pre-incubated with LL-18 1 hr, titer 24 h.p.i (S5B Fig)
Method: Supplementary file ppat.1011967.s005.tif: S5 Fig LL-18 inhibits mEV71 infection in vivo. (A) 6-day-old ICR mice were infected with parental EV71 or mouse-adapted virus (mEV71) and the mice survival rate was determined. (B) RD cells infected with mEV71 pre-incubated with PBS or LL-18 for 1 hr were determined for virus titer 24 h.p.i. ***, P<0.001. (C) ICR mice infected with mEV71 or mEV71 pre-incubated with the indicated amount of LL-18 were sacrificed at 1 d.p.i. and viral titers from muscle were determined. ns, not significant; ***, P<0.001. (TIF) Click here for additional data file.

EV71 virus = assay: 1H NMR titration of peptide with EV71 virus; type: binding, enterovirus 71 (EV71); details: molar ratio peptide to virus 90:1, 800 MHz, 298k
Method: (§1) The NMR titrations were performed on a Bruker 800 MHz (Avance NEO) spectrometer equipped with cryo-probe. The molar ratio of the peptide to the virus was 90:1. The experiments were recorded using zgespg pulse for 128 scans at 298k and the results were analyzed by Topspin.

CVB5 virus = assay: 1H NMR titration of peptide with CVB5 virus; type: binding, coxsackievirus B5; details: molar ratio peptide to virus 90:1, 800 MHz, 298k
Method: as §1

FRKSKEKIGKLFKRIVQRILDFLRNLV [LL-18]
inhibition of uncoating (VP1 distribution in density gradient fractions) (EV71 virions): remained in the higher density fractions | inhibition of EV71 virus binding to SCARB2 [1]: inhibit virus binding to SCARB2 in a dose-dependent manner | susceptibility of P30 virus to LL-18 (EV71 P30 virus): still as susceptible to LL-18 as the parental virus | inhibition of mEV71 infection in RD cells (virus titer) [2]: could still inhibit the infection of this mEV71 strain in RD cells | interaction of peptide with EV71 virus by 1H 1D NMR (amide region) (EV71 virus): chemical shift perturbation with multiple new peaks was observed | interaction of peptide with CVB5 virus by 1H 1D NMR (amide region) (CVB5 virus): little effect on the spectra of peptides
